Series [1] in a line: Antitumor activity against human MP41 cells xenografted in BALB/c nu/nu mouse assessed as tumor growth inhibition at 30 mg/kg/day, ip administered for 21 days. The settings on record: MP41, 504 h, time 21 day, read-out: TGI. Format: functional. In general terms: Xenograft models place foreign cells or tissue in a host animal.
Series [2] in a line: Half life in ICR mouse at 15 mg/kg, po measured upto 24 hrs by LC-MS/MS analysis. Type of series: ADME, organism-based. The settings on record: in vivo.
Series [3] can be described thus: Antiproliferative activity against human MP41 cells incubated for 72 hrs by CCK8 assay. Type of series: functional, cell-based. The conditions noted are these: MP41, 72 h. (In general: Tetrazolium dyes change colour on reduction, which living cells bring about.)
A short description of series [4]: Antiproliferative activity against human 92.1 cells incubated for 72 hrs by CCK8 assay. Format: functional, cell-based. The conditions noted are these: 92-1, 72 h.
Series [5] can be described thus: Inhibition of YAP (unknown origin) to TEAD4 (unknown origin) protein protein interaction. Details: species or system Homo sapiens.
The test system of a further series is HCT-116. The experiment in a line: Antiproliferative activity against human HCT-116 cells incubated for 72 hrs. Format: functional, cell-based. The settings on record: HCT-116, 72 h.
In series [6] the target is Transcriptional enhancer factor TEF-3 (Homo sapiens, UniProt Q15561). As to the kind of experiment: Inhibition of TEAD4 (unknown origin) autopalmitoylation.
Transcriptional enhancer factor TEF-3, sequence (Q15561 whole entry): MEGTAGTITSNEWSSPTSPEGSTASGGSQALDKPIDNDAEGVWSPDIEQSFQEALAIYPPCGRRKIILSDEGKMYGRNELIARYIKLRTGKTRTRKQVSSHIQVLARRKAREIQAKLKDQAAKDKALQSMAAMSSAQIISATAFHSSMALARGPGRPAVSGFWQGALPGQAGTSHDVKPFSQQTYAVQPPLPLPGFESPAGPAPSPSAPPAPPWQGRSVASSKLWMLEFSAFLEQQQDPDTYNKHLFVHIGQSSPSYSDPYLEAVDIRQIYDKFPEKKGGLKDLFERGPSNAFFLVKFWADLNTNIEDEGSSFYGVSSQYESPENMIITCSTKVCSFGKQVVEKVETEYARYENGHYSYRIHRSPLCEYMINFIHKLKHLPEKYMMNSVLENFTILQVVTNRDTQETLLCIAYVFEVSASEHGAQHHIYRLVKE
Series [7] is described as follows: Inhibition of TEAD in HEK293 cells expressing YAP. Type of series: cell-based, Homo sapiens.
For the next series, the system named is PANC-1. The experiment in a line: Antiproliferative activity against human PANC-1 cells incubated for 48 hrs by MTT assay. Type of series: functional, cell-based. The conditions noted are these: PANC-1, 48 h.
Another series concerns MIA PaCa-2. As to the kind of experiment: Antiproliferative activity against human MIA PaCa-2 cells incubated for 48 hrs by MTT assay. Format: functional, cell-based. The settings on record: MIA PaCa-2, 48 h.
In another series the test system is SU.86.86. The experiment in a line: Antiproliferative activity against human SU-86-86 cells incubated for 48 hrs by MTT assay. Type of series: functional, cell-based. The settings on record: SU.86.86, 48 h.
The subject of the next series is SW1990. The experiment in a line: Antiproliferative activity against human SW1990 cells incubated for 48 hrs by MTT assay. Format: functional, cell-based. The settings on record: SW1990, 48 h.
Series [8] is described as follows: Antitumor activity against human MIA PaCa2 cells xenografted in BALB/c mouse assessed as tumor growth inhibition at 5 mg/kg, ip administered for every 2 days. The conditions noted are these: 48 h, time 2 day, read-out: TGI. Type of series: functional.
The test system of another series is BXPC-3. As to the kind of experiment: Antiproliferative activity against human BXPC-3 cells incubated for 48 hrs by MTT assay. Type of series: functional, cell-based. The conditions noted are these: BXPC-3, 48 h.
The subject of another series is ASPC1. The experiment in a line: Antiproliferative activity against human ASPC1 cells incubated for 48 hrs by MTT assay. Format: functional, cell-based. The conditions noted are these: ASPC1, 48 h.
Series [9] is described as follows: Inhibition of YAP (unknown origin)/TAZ-TEAD interaction (unknown origin). Further details: species or system Homo sapiens.
For the next series, the system named is MCF-10A. As to the kind of experiment: Growth inhibition of human MCF-10A cells incubated for 48 hrs. Format: functional.
Series [10] can be described thus: Inhibition of GST-tagged human TEAD1 to human His6-tagged YAP2 protein-protein interaction incubated for 2 hrs by AlphaLisa method.
The test system of series [11] is SCC-9. As to the kind of experiment: Antitumor activity against human SCC9 cells xenografted in nude mouse assessed as tumor growth inhibition at 50 mg/kg, po administered every other day. Format: functional. The conditions noted are these: read-out: TGI.
For series [12], the system named is SCC-9. As to the kind of experiment: Antiproliferative activity against human SCC-9 cells incubated for 72 hrs by MTT assay. Format: functional, cell-based. The conditions noted are these: SCC-9, 72 h.
In the next series the test system is SCC-15. The experiment in a line: Antiproliferative activity against human SCC-15 cells incubated for 72 hrs by MTT assay. The conditions noted are these: SCC-15, 72 h. Type of series: functional, cell-based.
Series [13] is described as follows: Inhibition of TAZ expressed in HEK293 cells incubated for 24 hrs by dual luciferase reporter assay. The conditions noted are these: Homo sapiens, HEK293, 24 h. Type of series: cell-based. For orientation: Reporter assays use an easily measured gene product as a stand-in for the process of interest.
Another series relates to HSC-3. The experiment in a line: Antiproliferative activity against human HSC-3 cells incubated for 72 hrs by MTT assay. Format: functional, cell-based. The conditions noted are these: HSC-3, 72 h.
The subject of the next series is NCI-H460. The experiment in a line: Antiproliferative activity against human NCI-H460 cells incubated for 48 hrs by SRB assay. Type of series: functional, cell-based. The conditions noted are these: NCI-H460, 48 h.
Series [14] concerns Lewis lung carcinoma cell line. As to the kind of experiment: Antiproliferative activity against mouse Lewis lung carcinoma cell line incubated for 48 hrs by SRB assay. Type of series: functional, cell-based.
The test system of a further series is NCI-H1975. The experiment in a line: Antiproliferative activity against human NCI-H1975 cells incubated for 48 hrs by SRB assay. Format: functional, cell-based. The settings on record: NCI-H1975, 48 h.

The source of these data is ChEMBL document CHEMBL6071129, “Strategies that regulate Hippo signaling pathway for novel anticancer therapeutics” (Eur J Med Chem, 2024).

In general, half-life refers to the time in which the quantity being followed falls by half. The low end stands for rapid decline, the high end for slow decline. By IC50 is commonly meant the concentration needed to halve the response being measured. `CN1CCCC1CN1CCn2cc(-c3ccccc3)nc2[C@@H]1CC1CCCCC1` (stereo partly specified): the inhibition in vivo at 30 mg/kg/day in [1] stood at 107%. In [2], this compound gave a half-life of 144 min. Further, the IC50 in series [3] came to 5.1 µM; in series [4], 10.4 µM.
For `CCOc1ccc(CN2CCCC(C(=O)c3cccc(C(F)(F)F)c3)C2)cc1CO` (stereo unspecified), the IC50 in series [5] came to 21.4 µM; in the series with HCT-116, 27.9 µM; in series [6], 1300 nM; in series [7], 2100 nM.
Regarding `COc1ccc(C(=O)O[C@H]2C=COC=C3[C@@H](O)[C@]45S[C@@H](C(=O)N4[C@@H]32)N(C)C5=O)cc1Oc1cc(C=O)ccc1O`, the IC50 in the series on PANC-1 is less than 2000 nM; in the series with MIA PaCa-2, less than 2000 nM; with SU.86.86, less than 4 µM; in the series on SW1990, less than 4 µM; in the series with BXPC-3, less than 2000 nM; in the series on ASPC1, less than 2000 nM. Also, the inhibition in vivo at 5 mg/kg in series [8] worked out at 71%.
For orientation: GI50 means the concentration that inhibits growth by half. In [9], `COc1ccc(CCNC(=O)C2=CS(=O)(=O)c3ccccc32)cc1` came in with an IC50 of 12.7 µM. In the series on MCF-10A, the GI50 was 3.2 µM.
As to `COc1cc(/C=N/N(CCO)C2=NS(=O)(=O)c3ccccc32)ccc1O`, the IC50 in series [10] worked out at 25.4 µM.
Regarding `CC(C)[C@H](C(=O)Nc1ccc(C(=O)NO)cc1)c1ccccc1` [AR-42], the inhibition in vivo at 50 mg/kg with SCC-9 [11] was 85%. Besides, the IC50 in the series on SCC-9 [12] was 240 nM; with SCC-15 it was 350 nM; in series [13] it was less than 300 nM; in the series with HSC-3, 800 nM.
As to `C[C@H]1[C@H](OC(=O)CCC(=O)O)O[C@@H]2O[C@@]3(C)CC[C@H]4[C@H](C)CC[C@@H]1[C@@]24OO3` [ARTESUNATE], the 50% inhibitory concentration (IC50) worked out at 16.1 µM in the series with NCI-H460, 11.1 µM in series [14] and 4.02 µM in the series with NCI-H1975.
